Assay results from BindingDB's records for doi:10.7270/Q25719HD (The Scripps Research Institute Molecular Screening Center, 2010).

Target: T1, Cytochrome b-245 heavy chain (Homo sapiens, UniProt P04839)
T1 sequence (P04839 whole entry): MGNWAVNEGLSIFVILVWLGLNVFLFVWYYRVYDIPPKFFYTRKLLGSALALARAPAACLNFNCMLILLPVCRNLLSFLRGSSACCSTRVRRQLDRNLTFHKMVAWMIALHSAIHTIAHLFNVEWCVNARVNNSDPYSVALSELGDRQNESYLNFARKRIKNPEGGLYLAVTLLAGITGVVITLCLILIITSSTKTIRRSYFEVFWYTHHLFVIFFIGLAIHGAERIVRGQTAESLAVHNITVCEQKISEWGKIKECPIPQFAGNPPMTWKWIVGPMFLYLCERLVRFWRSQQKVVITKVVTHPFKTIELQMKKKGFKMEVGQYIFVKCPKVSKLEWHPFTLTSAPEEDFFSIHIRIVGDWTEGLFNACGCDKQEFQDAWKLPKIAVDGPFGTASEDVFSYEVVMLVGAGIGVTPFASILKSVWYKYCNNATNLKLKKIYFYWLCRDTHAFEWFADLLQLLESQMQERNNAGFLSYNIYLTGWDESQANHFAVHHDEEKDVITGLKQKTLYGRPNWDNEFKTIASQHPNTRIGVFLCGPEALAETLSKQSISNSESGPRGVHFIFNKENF
Test: PubChem AID 435013

Row | IC50 | Compound
1 | > 10 µM | CN(C)c1ccc(CN=Nc2c(Cl)cncc2Cl)cc1
2 | > 50 µM | Oc1c(Br)cc(CN=Nc2c(Cl)cncc2Cl)cc1Br [4-[[2-[3,5-bis(chloranyl)pyridin-4-yl]hydrazinyl]methylidene]-2,6-bis(bromanyl)cyclohexa-2,5-dien-1-one]
